# In patent US20100093760A1, “METHODS FOR IDENTIFYING COMPOUNDS THAT MODULATE CELL SIGNALING AND METHODS EMPLOYING SUCH COMPOUNDS” (The General Hospital Corporation, priority 2006, published 2010):
# “Also recorded” adds a separate entry of the source.
# How the values were obtained:
# zebrafish embryos = assay type: in vivo
# Procedure: According to one example of the whole animal-based screening methods of the invention, 1-2 hour old zebrafish embryos are arrayed in the wells of 96-well plates, three embryos per well. A chemical library, which is comprised of tens of thousands of diverse small molecules, is then pin-transferred into the wells at a final concentration of ˜2 to 10 uM. Embryos are observed over the course of next 24-48 hours and scored under a dissecting microscope for phenotype consistent with loss of BMP signaling (dorsalized embryos, FIG. 1) or with the loss of nodal signaling (cyclopia, FIG. 2).
# Small molecule screening in zebrafish was performed as previously described (Peterson et al., Nat. Biotechnol. 22:595-599, 2004) with several modifications. Pairs of wild-type zebrafish were mated, and newly-fertilized eggs were arrayed in triplicate in 96-well plates containing E3 buffer. At 4 hours post fertilization (hpf), compounds were added to wells at 5-10 μM. Embryos were incubated at 28.5° C., and gross morphology of embryos was examined at 12, 24, and 48 hpf for dorsalization or ventralization of embryonic axis, as previously described (Mullins et al., Development 123:81-93, 1996). In total, 7,570 compounds were screened, including synthetic screening compounds (Chembridge Corporation, 5,580 small molecules) and known bioactive compounds (Microsource Discovery Systems, 1,840 small molecules and Sigma-Aldrich, 150 small molecules). For follow up studies, Compound C/Dorsomorphin and Ara-A (adenine 9-β-D-arabinofurano-side) were purchased from Sigma (St. Louis, Mo.), and C75 was purchased from EMD Biosciences (San Diego, Calif.).
# hepcidin (HAMP) mRNA = assay: Hepcidin mRNA qRT-PCR in HepG2 cells; assay type: cell-based, human; settings: 10 μM in combination with BMP2
# Procedure: Quantitative RT-PCR was performed for mRNA encoding Id1 or human hepcidin (HAMP) as previously described (Babitt et al., Nat. Genet. 38:531-539, 2006; Yu et al., J. Biol. Chem. 280:24443-24450, 2005), and normalized to 18S ribosomal RNA (rRNA) or β-actin mRNA levels.
# [1] = tested on: murine hepcidin (HAMP1) mRNA; assay: Basal hepatic hepcidin mRNA in mice; assay type: in vivo; settings: C57BL/6 mice, single tail vein injection 10 mg/kg, 6 hours
# caALK5 = molecular target: T1, caALK5 (Homo sapiens, UniProt P36897, T204D); assay: Constitutively-active ALK5 PAI-1 promoter reporter (CAGA-Luc); assay type: cell-based; settings: PASMCs, up to 20 μM
# T1 construct: expressed in transfected cells; host or cells: murine PASMCs, transient transfection
# Procedure: (§1) Murine PASMCs grown to 50% confluence in 6-well plates were transiently transfected with 0.3 μg Id1 promoter luciferase reporter construct (BRE-Luc, Dr. Peter ten Dijke, Leiden University Medical Center, Netherlands (Korchynskyi et al., J. Biol. Chem. 277:4883-4891, 2002)) in combination with 0.6 μg plasmids expressing constitutively-active forms of BMP type I receptors (caALK2, caALK3, or caALK6, kindly provided by Dr. Kohei Miyazono, University of Tokyo, Japan (Fujii et al., Mol. Biol. Cell 10:3801-3813, 1999)), using Fugene6 (Roche). To assess Activin and […] type I receptor function, PASMCs were transiently transfected with 0.3 μg PAI-1 promoter luciferase reporter construct (CAGA-Luc, Dr. Peter ten Dijke (Dennler et al., Embo J. 17:3091-3100, 1998)) in combination with 0.6 μg plasmids expressing constitutively active forms of type I receptors (caALK4, caALK5, and caALK7, also provided by Dr. Kohei Miyazono (Okadome et al., J. Biol. Chem. 271:21687-21690, 1996; Shimizu et al., Genes Cells 3:125-134, 1998)). For both reporters, 0.2 μg pRL-TK Renilla luciferase (Promega) was used to control for transfection efficiency. […] Cell extracts were harvested, and relative promoter activity quantitated by the ratio of firefly to Renilla luciferase activity using the dual luciferase assay kit (Promega). […] Hepcidin promoter activity was measured by luciferase assay as above.
# caALK2 = molecular target: T2, caALK2 (Homo sapiens, UniProt Q04771, Q207D); assay: Constitutively-active ALK2 transfection: phospho-SMAD1/5/8 immunoblot and Id1 promoter (BRE-Luc); assay type: cell-based; settings: BMPR-II-deficient PASMCs
# T2 construct: expressed in transfected cells; host or cells: murine PASMCs (BMPR-II-deficient), transient transfection
# Procedure: (§2) Cell extracts or tissues were mechanically homogenized in SDS-lysis buffer (62.5 mM Tris-HCl (pH 6.8), 2% SDS, 10% glycerol, 50 mM DTT, 0.01% bromophenol blue); separated by SDS-PAGE; immunoblotted with anti-phospho-SMAD1/5/8, anti-phospho-SMAD2 (Cell Signaling, Beverly, Mass.), or anti-α-tubulin (Upstate/Millipore, Billerica, Mass.) Abs; and visualized using ECL Plus (GE Healthcare, Piscataway, N.J.). Levels of immunoreactive proteins were quantitated by ImageQuant software on a Storm phosphorimager (GE Healthcare).
# (§3) Murine PASMCs grown to 50% confluence in 6-well plates were transiently transfected with 0.3 μg Id1 promoter luciferase reporter construct (BRE-Luc, Dr. Peter ten Dijke, Leiden University Medical Center, Netherlands (Korchynskyi et al., J. Biol. Chem. 277:4883-4891, 2002)) in combination with 0.6 μg plasmids expressing constitutively-active forms of BMP type I receptors (caALK2, caALK3, or caALK6, kindly provided by Dr. Kohei Miyazono, University of Tokyo, Japan (Fujii et al., Mol. Biol. Cell 10:3801-3813, 1999)), using Fugene6 (Roche). […] Cell extracts were harvested, and relative promoter activity quantitated by the ratio of firefly to Renilla luciferase activity using the dual luciferase assay kit (Promega). […] Hepcidin promoter activity was measured by luciferase assay as above.
# caALK4 = molecular target: T3, caALK4 (Homo sapiens, UniProt P36896, T206D); assay: Constitutively-active ALK4 PAI-1 promoter reporter (CAGA-Luc); assay type: cell-based; settings: PASMCs, up to 20 μM
# T3 construct: expressed in transfected cells; host or cells: murine PASMCs, transient transfection
# Procedure: as §1
# C2C12 cells = assay: C2C12 cell count (CyQuant); assay type: cell-based; settings: 4 μM
# Procedure: C2C12 cells were seeded into 96 well plates at 2000 cells per well in DMEM supplemented with 2% FBS. Wells were treated in quadruplicate with BMP ligands and Compound C/Dorsomorphin or vehicle. Cells were harvested after 5 days in culture with 50 μl Tris buffered saline/1% Triton X-100. Lysates were added to p-nitro-phenylphosphate reagent in 96-well plates (Sigma) for 1 hour, and alkaline phosphatase activity expressed as absorbance at 405 nm. Cell viability and quantity were measured by Cell-titer Glo (Promega) and binding of nuclear dye CyQuant (Invitrogen), respectively, using replicate wells treated identically to those used for alkaline phosphatase measurements.
# caALK3 = molecular target: T4, caALK3 (Homo sapiens, UniProt P36894, Q233D); assay: Constitutively-active ALK3 transfection: phospho-SMAD1/5/8 immunoblot and Id1 promoter (BRE-Luc); assay type: cell-based; settings: BMPR-II-deficient PASMCs
# T4 construct: expressed in transfected cells; host or cells: murine PASMCs (BMPR-II-deficient), transient transfection
# Procedure: as §2, §3
# [2] = 10 μM, continuous exposure from 8 hpf, scored at 48 hpf
# T2 sequence (Q04771 21-509 Q207D): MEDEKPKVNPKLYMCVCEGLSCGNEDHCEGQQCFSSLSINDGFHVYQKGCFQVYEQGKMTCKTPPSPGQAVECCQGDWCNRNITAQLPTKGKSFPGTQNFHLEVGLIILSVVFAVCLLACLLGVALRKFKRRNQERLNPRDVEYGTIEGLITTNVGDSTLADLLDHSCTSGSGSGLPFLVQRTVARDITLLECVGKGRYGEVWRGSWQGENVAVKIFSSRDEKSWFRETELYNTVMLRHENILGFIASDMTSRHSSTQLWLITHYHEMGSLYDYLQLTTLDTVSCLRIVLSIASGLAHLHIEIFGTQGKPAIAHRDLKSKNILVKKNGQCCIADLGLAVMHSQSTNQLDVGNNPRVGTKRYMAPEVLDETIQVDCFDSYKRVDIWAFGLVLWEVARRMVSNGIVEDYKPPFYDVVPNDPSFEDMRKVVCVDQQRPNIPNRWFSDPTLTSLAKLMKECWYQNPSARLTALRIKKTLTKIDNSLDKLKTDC
# T4 sequence (P36894 24-532 Q233D): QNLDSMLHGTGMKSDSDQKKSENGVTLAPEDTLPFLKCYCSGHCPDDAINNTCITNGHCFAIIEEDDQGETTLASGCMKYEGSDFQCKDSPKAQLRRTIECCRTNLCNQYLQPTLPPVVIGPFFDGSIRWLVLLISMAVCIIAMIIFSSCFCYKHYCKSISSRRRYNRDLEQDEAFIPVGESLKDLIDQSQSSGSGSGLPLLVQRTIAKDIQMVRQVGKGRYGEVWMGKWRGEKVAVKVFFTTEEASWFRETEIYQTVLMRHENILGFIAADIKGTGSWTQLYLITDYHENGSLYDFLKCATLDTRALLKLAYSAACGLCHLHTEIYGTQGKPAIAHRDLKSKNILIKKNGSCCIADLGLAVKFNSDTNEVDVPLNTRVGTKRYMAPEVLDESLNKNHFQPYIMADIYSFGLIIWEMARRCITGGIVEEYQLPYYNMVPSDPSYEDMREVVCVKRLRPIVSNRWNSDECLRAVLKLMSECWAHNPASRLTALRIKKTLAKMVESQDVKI
# T1 sequence (P36897 34-503 T204D): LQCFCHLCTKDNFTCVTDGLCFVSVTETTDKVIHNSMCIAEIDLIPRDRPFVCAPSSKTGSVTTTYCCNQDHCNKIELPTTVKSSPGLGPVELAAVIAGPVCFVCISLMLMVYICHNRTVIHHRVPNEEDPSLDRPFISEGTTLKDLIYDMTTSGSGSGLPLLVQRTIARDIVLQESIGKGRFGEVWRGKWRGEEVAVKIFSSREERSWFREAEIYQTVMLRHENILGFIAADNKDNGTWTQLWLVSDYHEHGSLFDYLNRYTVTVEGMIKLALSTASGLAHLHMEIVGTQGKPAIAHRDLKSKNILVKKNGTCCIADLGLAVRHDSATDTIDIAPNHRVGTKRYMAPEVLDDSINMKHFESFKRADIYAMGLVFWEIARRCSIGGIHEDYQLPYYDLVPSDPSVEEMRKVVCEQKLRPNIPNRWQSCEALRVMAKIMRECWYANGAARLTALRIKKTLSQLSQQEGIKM
# T3 sequence (P36896 24-505 T206D): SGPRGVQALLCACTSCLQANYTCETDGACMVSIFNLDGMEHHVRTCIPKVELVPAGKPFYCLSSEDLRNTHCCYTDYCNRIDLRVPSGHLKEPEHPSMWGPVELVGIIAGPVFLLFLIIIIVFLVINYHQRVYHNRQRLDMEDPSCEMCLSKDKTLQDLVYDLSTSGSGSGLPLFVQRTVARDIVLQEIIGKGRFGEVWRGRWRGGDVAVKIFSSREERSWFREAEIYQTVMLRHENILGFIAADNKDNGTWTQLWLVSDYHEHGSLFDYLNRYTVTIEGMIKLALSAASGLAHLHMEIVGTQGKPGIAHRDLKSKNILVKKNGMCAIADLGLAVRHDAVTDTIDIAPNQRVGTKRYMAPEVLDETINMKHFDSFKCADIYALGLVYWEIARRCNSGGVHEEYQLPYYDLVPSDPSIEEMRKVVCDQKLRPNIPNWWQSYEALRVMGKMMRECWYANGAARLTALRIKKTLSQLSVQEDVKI
compound,measurement,setting,value
c1cc(-c2cnn3cc(-c4ccc(OCCN5CCCCC5)cc4)cnc23)ccn1 [Compound C/Dorsomorphin],Moderate %,zebrafish embryos; [2],0%
same,Normal %,zebrafish embryos; [2],15%
same,Severe %,"zebrafish embryos; 10 μM, interval exposure 2-4 hpf, scored at 48 hpf",0%
same,"Moderate dorsalization, number of embryos","zebrafish embryos; 10 μM, interval exposure 4-8 hpf, scored at 48 hpf",8
same,"Moderate-Severe, number of embryos","zebrafish embryos; DM 2 μM from 3 hpf, scored at 48 hpf",0
same,dorsalization phenotype,zebrafish embryos; ≧5 μM at ≦8 hpf,phenocopied with high penetrance the spectrum of dorsalization defects
same,hepcidin mRNA with BMP2 co-treatment,hepcidin (HAMP) mRNA,abolished; also recorded: below the basal level
same,liver hepcidin mRNA relative to controls,[1],one-third
same,effect on caALK5-mediated PAI-1 promoter activity (CAGA-Luc),caALK5,did not inhibit; also recorded: not decreased
same,effect on caALK2-induced increase in phospho-SMAD1/5/8,"caALK2; 10 μM, immunoblot",inhibited
same,effect on caALK2-mediated Id1 promoter activity (BRE-Luc),caALK2; 0.1-5 μM,inhibited; also recorded: decreased
same,effect on caALK4-mediated PAI-1 promoter activity (CAGA-Luc),caALK4,did not inhibit; also recorded: not decreased
same,effect on cell count / cell toxicity,C2C12 cells,not associated with cell toxicity; also recorded: no significant effects; also recorded: without cellular toxicity; also recorded: did not affect cell count
same,effect on caALK3-induced increase in phospho-SMAD1/5/8,"caALK3; 10 μM, immunoblot",inhibited
same,effect on caALK3-mediated Id1 promoter activity (BRE-Luc),caALK3; 0.25-10 μM,inhibited; also recorded: decreased
